Experimental data from patent US20170247459A1, “COMBINATION THERAPY OF ANTIBODIES AGAINST HUMAN CSF-1R AND USES THEREOF” (HOFFMANN-LA ROCHE INC., priority 2012, published 2017).

Assays:
MC38 colon carcinoma = assay: Tumor growth inhibition with chemotherapy or cancer immunotherapy combinations in subcutaneous syngeneic MC38 colon carcinoma model; format: in vivo, C57BL/6N mice; conditions: for TCR (day 21) / TGI (day 21): compared to control antibody; for TGI (day 21): antibody 30 mg/kg i.p. weekly; for Median time to progression TV > 700 mm3: mouse, in vivo
Text: Inhibition of Tumor Growth Under Treatment with Anti-CSF-1R Monoclonal Antibody in Combination with Chemotherapy or Cancer Immunotherapy in Subcutaneous Syngeneic MC38 Colon Carcinoma Models

primary tumor growth = assay: Docetaxel combined with anti-mouse CSF-1R antibody (separate experiment); format: in vivo
Protocol: Docetaxel was administered 3 times weekly as 1 cycle followed by 3 weeks drug holiday.

O=C1[O][Pt]2([NH][C@@H]3CCCC[C@H]3[NH]2)[O]C1=O [Oxaliplatin]
TCR (day 21) (MC38 colon carcinoma): 0.54
TGI (day 21) (MC38 colon carcinoma): 46%
Median time to progression TV > 700 mm3 (MC38 colon carcinoma): 21

CC(=O)O[C@@]12CO[C@@H]1C[C@H](O)[C@@]1(C)C(=O)[C@H](O)C3=C(C)[C@@H](OC(=O)[C@H](O)[C@@H](NC(=O)OC(C)(C)C)c4ccccc4)C[C@@](O)([C@@H](OC(=O)c4ccccc4)[C@H]21)C3(C)C [docetaxel]
npTCR (primary tumor growth; after 2 cycles of docetaxel): 0.55
TGI (primary tumor growth; after 2 cycles of docetaxel, docetaxel 3 mg/kg i.v., antibody 30 mg/kg i.p. weekly): 75%
median survival time (primary tumor growth; in vivo): 154 days

Proleukin: IL-2 (Proleukin, Novartis)
TCR (day 21) (MC38 colon carcinoma): 0.53
TGI (day 21) (MC38 colon carcinoma): 47%
TGI (day 21) (MC38 colon carcinoma; listed as IL2): 47%
Median time to progression TV > 700 mm3 (MC38 colon carcinoma): 21
